Measurements as given in patent US20230263757A1, “DISINFECTING WIPE KIT FOR CENTRAL VENOUS ACCESS DEVICES” (SterileCare Inc., priority 2022, published 2023).
Where a name gives a salt, the structure may show the parent alone. Read-outs that look alike come from different tables or passages of the source.

Assays:
[1] = tested on: C. albicans ON47; assay: Checkerboard titration, FICI; assay type: cell-based, Candida albicans; conditions: for concentration in combination: EDTA + ethanol
Experimental: (§1) A fourth composition and solution included tetrasodium EDTA with ethanol or chlorhexidine HCl. This fourth composition and solution were created using checkerboard titration methods using micro broth dilution in 96-well microtiter plates. The concentrations of antimicrobials used were based on previously determined MIC values. Briefly, 200 μL, of two-fold dilutions of tetrasodium EDTA and ethanol or chlorhexidine HCl were prepared in MH or MH II broth with standardized cell suspension. […] Microtiter plates were incubated at 37° C. for 24 h, and the results were analyzed. Each test was performed in duplicate and included a growth control without adding any antimicrobials.

[2] = tested on: C. albicans ON47; assay: MIC, micro broth dilution; assay type: cell-based, Candida albicans; conditions: alone
Experimental: (§2) An assay was made using a minimum inhibitory concentration (MIC) and minimum bactericidal concentration (MBC) and minimum fungicidal concentration (MFC) determination. The MIC was determined by the micro broth dilution method in 96-well plates. Serial two-fold dilutions of tetrasodium EDTA (from 2% to 0.015%), ethanol (from 50% to 0.1%) and chlorhexidine HCl (from 100 μg/mL to 0.025 μg/mL) were prepared in MH broth with a final volume of 90 μL per well. A 10 μL containing 1×10^5 bacterial cells or 2×10^3 fungal cells were added to each well. The inoculated plates were covered with a lid, sealed with Parafilm, and incubated for 24 h at 37° C. with slight rocking on a tilting platform shaker. After incubation, the optical density at 600 nm (OD 600) of the cultures in each well was measured using an xMark™ Microplate Absorbance Spectrophotometer (Bio-Rad). […] MBCs and MFCs were determined by transferring 100 μL from each well with no apparent growth onto appropriate agar plates, followed by incubation for 24 h at 37° C.

[3] = tested on: Proteus mirabilis ON153; assay: FBEC index, checkerboard on biofilms; assay type: cell-based; conditions: for biofilm eradication concentration in combination (FBEC): EDTA + ethanol
Experimental: (§4) In step (4), microtiter plates are incubated at 37° C. for 24 h. then (6), after incubation, the bacterial and fungal cells were dislodged from the pegs into the recovery medium described above.
(§5) Three 10-μL aliquots, for a total of 30 μL from each well of recovery medium, were spotted on MH agar plates and incubated for 24 h at 37° C. […] The FBEC determination is a modification of the FICI.

[4] = tested on: C. albicans ON47; assay: Checkerboard, FMCI; assay type: cell-based, Candida albicans; conditions: for microbicidal concentration in combination: EDTA + ethanol
Experimental: as §2, §1

[5] = tested on: MRSA ON184; assay: MIC, micro broth dilution; assay type: cell-based, S. aureus; conditions: alone
Experimental: as §2

[6] = tested on: C. albicans ON47; assay: MBEC assay, 48-h biofilm, 24 h exposure; assay type: cell-based, Candida albicans
Experimental: (§3) A biofilm cultivation cell composition was provided. This fifth composition was created using an MBEC Assay® biofilm inoculator, consisting of a polystyrene lid with 96 downward-protruding pegs and a corresponding base used to grow biofilms. A standardized inoculum was diluted in an appropriate biofilm growth medium to achieve a viable cell count of 1.5×10^6 CFU/mL of bacterial cells or 5×10^5 CFU/mL of fungal cells. Then, 150 μL of this inoculum was transferred into each appropriate well, and the peg lids were inserted into the microtiter plates. The plates were sealed with Parafilm and were incubated at optimum temperature for 48 h with slight rocking for bacteria and shaking at 200 rpm for fungal strains. After incubation, the peg lid was removed from the base and rinsed twice with sterile phosphate-buffered saline (PBS) for 2 min to remove loosely attached non-sessile cells. Before the antimicrobial challenge, the pegs in column 1 (n=8) were considered the biofilm growth control; these pegs were removed from the lids, placed into 200 μL of recovery medium, and analyzed for starting biofilm cell numbers as described below. The rinsed pegs were placed into new 96-well plates containing two-fold dilutions of antimicrobials such as tetrasodium EDTA (4%-0.0125%), ethanol (100%-0.2%), and chlorhexidine HCl (100 μg/mL-0.4 μg/mL) in 200 μL of suitable biofilm growth medium per well and incubated at optimum temperature for 24 h. After the antimicrobial challenge, the pegs were rinsed twice with sterile PBS for 2 min and placed into a new 96-well plate containing 200 μL of recovery medium. The recovery plates were sealed with Parafilm, and biofilm cells were dislodged from the pegs by sonication for 30 min with a Branson 3510 bath sonicator. The biofilm cells in the recovery medium were serially diluted, and a drop dilution assay was performed to enumerate the viable cells. MBEC values were determined as the minimum concentration of antimicrobials that yielded a viable cell count at or lower than the 125 CFU/mL detection limit.

[7] = tested on: C. albicans ON47; assay: FBEC index, checkerboard on biofilms; assay type: cell-based, Candida albicans; conditions: for biofilm eradication concentration in combination (FBEC): EDTA + ethanol
Experimental: as §4, §5

[8] = tested on: Escherichia coli ON29; assay: Checkerboard, FMCI; assay type: cell-based; conditions: for microbicidal concentration in combination: EDTA + ethanol
Experimental: as §2, §1

[9] = tested on: Proteus mirabilis ON153; assay: Checkerboard, FMCI; assay type: cell-based; conditions: for microbicidal concentration in combination: EDTA + ethanol
Experimental: as §2, §1

[10] = tested on: Staphylococcus aureus ON89; assay: Checkerboard, FMCI; assay type: cell-based; conditions: for microbicidal concentration in combination: EDTA + ethanol
Experimental: as §2, §1

[11] = tested on: Serratia marcescens SK2; assay: Checkerboard, FMCI; assay type: cell-based; conditions: for microbicidal concentration in combination: EDTA + ethanol
Experimental: as §2, §1

[12] = tested on: Candida albicans SK4b; assay: Checkerboard, FMCI; assay type: cell-based; conditions: for microbicidal concentration in combination: EDTA + ethanol
Experimental: as §2, §1

[13] = tested on: Staphylococcus epidermidis ON170; assay: Checkerboard, FMCI; assay type: cell-based; conditions: for microbicidal concentration in combination: EDTA + ethanol
Experimental: as §2, §1

[14] = tested on: Pseudomonas aeruginosa SK1; assay: Checkerboard, FMCI; assay type: cell-based; conditions: for microbicidal concentration in combination: EDTA + ethanol
Experimental: as §2, §1

[15] = tested on: Stenotrophomonas maltophilia ON17; assay: Checkerboard, FMCI; assay type: cell-based; conditions: for microbicidal concentration in combination: EDTA + ethanol
Experimental: as §2, §1

[16] = tested on: E. coli SK2; assay: MBC/MFC determination; assay type: cell-based, Escherichia coli; conditions: alone
Experimental: as §2

[17] = tested on: Staphylococcus aureus ON89; assay: FBEC index, checkerboard on biofilms; assay type: cell-based; conditions: for biofilm eradication concentration in combination (FBEC): EDTA + ethanol
Experimental: as §4, §5

[18] = tested on: MRSA ON184; assay: Checkerboard titration, FICI; assay type: cell-based, S. aureus; conditions: for concentration in combination: EDTA + ethanol
Experimental: as §1

[19] = tested on: MRSA ON184; assay: MBEC assay, 48-h biofilm, 24 h exposure; assay type: cell-based, S. aureus
Experimental: as §3

[20] = tested on: S. epidermidis SK9; assay: Checkerboard, FMCI; assay type: cell-based, Staphylococcus epidermidis; conditions: for microbicidal concentration in combination: EDTA + ethanol
Experimental: as §2, §1

[21] = tested on: Staphylococcus epidermidis SK9; assay: FBEC index, checkerboard on biofilms; assay type: cell-based; conditions: for biofilm eradication concentration in combination (FBEC): EDTA + ethanol
Experimental: as §4, §5

[22] = tested on: Escherichia coli SK2; assay: FBEC index, checkerboard on biofilms; assay type: cell-based; conditions: for biofilm eradication concentration in combination (FBEC): EDTA + ethanol
Experimental: as §4, §5

Structure (SMILES): [H]/N=C(\N/C(=N/[H])NCCCCCCNC(=N)NC(=N)Nc1ccc(Cl)cc1)Nc1ccc(Cl)cc1 [Chlorhexidine HCl, 1,6-bis(4′-chlorophenylbiguanide) hexane]
- Chlorhexidine HCl concentration in combination ([1]; EDTA + chlorhexidine HCl): 0.8 µg/mL
- MIC ([2]; Candida albicans, read-out: MIC): 1.6 µg/mL
- Chlorhexidine HCl biofilm eradication concentration in combination (FBEC) ([3]; EDTA + chlorhexidine HCl): 3.125 µg/mL
- Chlorhexidine HCl microbicidal concentration in combination ([4]; EDTA + chlorhexidine HCl): 1.6 µg/mL
- MIC ([5]; Staphylococcus aureus, read-out: MIC): 0.2 µg/mL
- MBEC [6]: 25 µg/mL
- Chlorhexidine HCl biofilm eradication concentration in combination (FBEC) ([7]; EDTA + chlorhexidine HCl): 6.25 µg/mL
- Chlorhexidine HCl microbicidal concentration in combination ([8]; EDTA + chlorhexidine HCl): 0.2 µg/mL
- Chlorhexidine HCl microbicidal concentration in combination ([9]; EDTA + chlorhexidine HCl): 1.6 µg/mL
- Chlorhexidine HCl microbicidal concentration in combination ([10]; EDTA + chlorhexidine HCl): 0.2 µg/mL
- Chlorhexidine HCl microbicidal concentration in combination ([11]; EDTA + chlorhexidine HCl): 1.6 µg/mL
- Chlorhexidine HCl microbicidal concentration in combination ([12]; EDTA + chlorhexidine HCl): 0.8 µg/mL
- Chlorhexidine HCl microbicidal concentration in combination ([13]; EDTA + chlorhexidine HCl): 0.4 µg/mL
- Chlorhexidine HCl microbicidal concentration in combination ([14]; EDTA + chlorhexidine HCl): 1.6 µg/mL
- Chlorhexidine HCl microbicidal concentration in combination ([15]; EDTA + chlorhexidine HCl): 0.4 µg/mL
- MBC/MFC [16]: 0.8 µg/mL
- Chlorhexidine HCl biofilm eradication concentration in combination (FBEC) ([17]; EDTA + chlorhexidine HCl): 3.125 µg/mL
- Chlorhexidine HCl concentration in combination ([18]; EDTA + chlorhexidine HCl): 0.2 µg/mL
- MBEC [19]: 50 µg/mL
- Chlorhexidine HCl microbicidal concentration in combination ([20]; EDTA + chlorhexidine HCl): 0.4 µg/mL
- Chlorhexidine HCl biofilm eradication concentration in combination (FBEC) ([21]; EDTA + chlorhexidine HCl): 3.125 µg/mL
- Chlorhexidine HCl biofilm eradication concentration in combination (FBEC) ([22]; EDTA + chlorhexidine HCl): 3.125 µg/mL

Structure (SMILES): O=C([O-])CN(CCN(CC(=O)[O-])CC(=O)[O-])CC(=O)[O-].[Na+].[Na+].[Na+].[Na+] [EDTA, tetrasodium EDTA]
- EDTA concentration in combination ([1]; EDTA + chlorhexidine HCl): 0.125 % w/v
- concentration in combination [1]: 0.25 % w/v
- MIC [2]: 1 % w/v
- EDTA biofilm eradication concentration in combination (FBEC) ([3]; EDTA + chlorhexidine HCl): 0.125 % w/v
- biofilm eradication concentration in combination (FBEC) [3]: 0.125 % w/v
- EDTA microbicidal concentration in combination ([4]; EDTA + chlorhexidine HCl): 0.031 % w/v
- microbicidal concentration in combination [4]: 0.25 % w/v
- MIC [5]: 0.063 % w/v
- MBEC [6]: 1 % w/v
- EDTA biofilm eradication concentration in combination (FBEC) ([7]; EDTA + chlorhexidine HCl): 0.031 % w/v
- biofilm eradication concentration in combination (FBEC) [7]: 0.125 % w/v
- EDTA microbicidal concentration in combination ([8]; EDTA + chlorhexidine HCl): 0.008 % w/v
- microbicidal concentration in combination [8]: 0.25 % w/v
- EDTA microbicidal concentration in combination ([9]; EDTA + chlorhexidine HCl): 0.125 % w/v
- microbicidal concentration in combination [9]: 0.063 % w/v
- EDTA microbicidal concentration in combination ([10]; EDTA + chlorhexidine HCl): 0.008 % w/v
- microbicidal concentration in combination [10]: 0.25 % w/v
- EDTA microbicidal concentration in combination ([11]; EDTA + chlorhexidine HCl): 0.125 % w/v
- microbicidal concentration in combination [11]: 0.25 % w/v
- EDTA microbicidal concentration in combination ([12]; EDTA + chlorhexidine HCl): 0.125 % w/v
- microbicidal concentration in combination [12]: 0.25 % w/v
- EDTA microbicidal concentration in combination ([13]; EDTA + chlorhexidine HCl): 0.25 % w/v
- microbicidal concentration in combination [13]: 0.031 % w/v
- EDTA microbicidal concentration in combination ([14]; EDTA + chlorhexidine HCl): 0.031 % w/v
- microbicidal concentration in combination [14]: 0.031 % w/v
- EDTA microbicidal concentration in combination ([15]; EDTA + chlorhexidine HCl): 0.031 % w/v
- microbicidal concentration in combination [15]: 0.125 % w/v
- MBC/MFC [16]: 0.5 % w/v
- EDTA biofilm eradication concentration in combination (FBEC) ([17]; EDTA + chlorhexidine HCl): 0.125 % w/v
- biofilm eradication concentration in combination (FBEC) [17]: 0.063 % w/v
- EDTA concentration in combination ([18]; EDTA + chlorhexidine HCl): 0.008 % w/v
- concentration in combination [18]: 0.015 % w/v
- MBEC [19]: 2 % w/v
- EDTA microbicidal concentration in combination ([20]; EDTA + chlorhexidine HCl): 0.008 % w/v
- microbicidal concentration in combination [20]: 0.031 % w/v
- EDTA biofilm eradication concentration in combination (FBEC) ([21]; EDTA + chlorhexidine HCl): 0.125 % w/v
- biofilm eradication concentration in combination (FBEC) [21]: 0.031 % w/v
- EDTA biofilm eradication concentration in combination (FBEC) ([22]; EDTA + chlorhexidine HCl): 0.031 % w/v
- biofilm eradication concentration in combination (FBEC) [22]: 0.125 % w/v

Structure (SMILES): CCO [Ethanol, ethanol]
- concentration in combination [1]: 0.4 % w/v
- MIC [2]: 6.25 % w/v
- biofilm eradication concentration in combination (FBEC) [3]: 6.25 % w/v
- microbicidal concentration in combination [4]: 3.125 % w/v
- MIC [5]: 6.25 % w/v
- MBEC [6]: 12.5 % w/v
- biofilm eradication concentration in combination (FBEC) [7]: 1.6 % w/v
- microbicidal concentration in combination [8]: 6.25 % w/v
- microbicidal concentration in combination [9]: 6.25 % w/v
- microbicidal concentration in combination [10]: 3.125 % w/v
- microbicidal concentration in combination [11]: 6.25 % w/v
- microbicidal concentration in combination [12]: 3.125 % w/v
- microbicidal concentration in combination [13]: 1.6 % w/v
- microbicidal concentration in combination [14]: 6.25 % w/v
- microbicidal concentration in combination [15]: 1.6 % w/v
- MBC/MFC [16]: 25 % w/v
- biofilm eradication concentration in combination (FBEC) [17]: 0.8 % w/v
- concentration in combination [18]: 0.4 % w/v
- MBEC [19]: 12.5 % w/v
- microbicidal concentration in combination [20]: 3.125 % w/v
- biofilm eradication concentration in combination (FBEC) [21]: 1.6 % w/v
- biofilm eradication concentration in combination (FBEC) [22]: 1.6 % w/v
